According to publication PMC8573170 (The Journal of Biological Chemistry, 2021):
Entries after “also recorded” stand apart in the source; their conditions may differ. Blank lines part the entries; values can stand above or below the compound they belong to.

Experiments:
[1] = test system: α-thrombin; experiment: XC-43-thrombin complex assembled in 10 mM HEPES pH 7.4, crystallized in 0.2 M magnesium acetate, 9% PEG 8000 (measured pH ∼ 7); settings: human, room temperature
[2] = test system: Wistar rats; experiment: Ex vivo aPTT of plasma from treated rats; assay type: in vivo; settings: rat; heparin 50 μg/kg intraperitoneal; 2 and 12 h posttreatment
Experimental: A total number of 24 animals were randomly distributed into four groups (n= 6 per group) and injected intraperitoneally (300 μl) with: (i) PBS; (ii) heparin (50 μg/kg); (iii) XC-43 (0.5 mg/kg); or (iv) XC-43 (1.0 mg/kg). Animals were anesthetized with isoflurane (5% for induction; 2% for maintenance) and blood samples were obtained at 0, 2, 12, and 24 h posttreatment in 1:10 (v/v) 3.8% trisodium citrate. The PPP was obtained by blood centrifugation (1500g for 10 min) and the aPTT evaluated using the APTT ellagic kit (Wiener Lab). Clot formation was monitored at 650 nm using a SpectraMax M3 (Molecular Devices).

[3] = target: T1, α-thrombin (Homo sapiens, UniProt P00734); experiment: SPR, peptides passed over immobilized thrombin; assay type: binding; settings: thrombin amine-coupled on CM5 chip; peptides 0-50 nM; single cycle; compared with biotinylated XC-43 surface
Experimental: Evaluation of binding kinetics by SPR was performed using a Biacore T200 instrument. Synthetic XC-43 containing covalently linked biotin at the N-terminal amino group and the ε-amino group of Lys 1 was bound to a surface of immobilized neutravidin on a CM-5 chip. After conditioning, human α-thrombin was passed over the surface, and kinetic data were collected in single cycle mode using a running buffer of 10 mM HEPES pH 7.4, 150 mM NaCl (HBS). The data were fit to a 1:1 Langmuir binding model. Binding was also analyzed after immobilization of α-thrombin on a CM-5 chip using amine coupling methodology. XC-42 and XC-43 were passed over the surface, and data were collected in the single cycle mode using HBS as a running buffer. The data were fit to a 1:1 binding model as described above.
Figure S2: Surface pl asmon resonanc e in the single cycle mode of (A) XC -42 or (B) XC-43 binding to thrombin immobilized on a CM5 chip surface. Exp erimental data are shown as a solid grey line while the calculated fit is shown as a dashed line (C) Th e kinetic param eters w ere estimated by fitting a 1:1 binding model. Peptide concentrations for each experiment were, 0 nM, 6.25 nM, 12.5 nM, 25 nM, 50 nM.
(§1) (1 picture or pasted object on this page, not shown here)

[4] = target: thrombin (Homo sapiens, UniProt P00734); experiment: Cleavage of peptides by thrombin in solution, measured by mass spectrometry; assay type: in vitro ADME; settings: 25 μM peptide, 1 μM thrombin (25:1); 2 h at 37 °C; 25 mM Tris-HCl pH 8.0, 150 mM NaCl; ESI-MS
Experimental: To detect cleavage of XC-42 and XC-43 by thrombin in solution, we incubated each peptide separately at a concentration of 25 μM in the presence of thrombin (1 μM) in 25 mM Tris-HCl pH 8.0 containing 150 mM NaCl for 2 h at 37 °C. Reactions were stopped by adjusting the pH to 2.0 with the addition of TFA. A Q Exactive plus (Thermo Fisher Scientific) mass spectrometer was used to carry out ESI-MS experiments. The instrument was operated at a resolution of 280k, spray voltage of 3.5 kV, and capillary temperature of 250 °C. Samples were desalted by C18 Zip-tip (Millipore) and dissolved in 200 μl of reconstitution buffer (50% acetonitrile, 49% water, 1% TFA). Samples were introduced using a syringe pump (Thermo Fisher Scientific) with a flow rate of 5 μl/min. Xtract was used to deconvolute the raw data.

[5] = test system: Wistar rats; experiment: Tail bleeding assay; assay type: in vivo; settings: rat; for increased tail bleeding vs PBS-injected animals: 30 min posttreatment, absorbance 540 nm
Experimental: The tail bleeding assay was performed with 24 animals kept at 37 °C under general anesthesia with isoflurane vaporized in 100% oxygen at a dose of 5% for induction and 2% for maintenance (flow rate of 0.5 l/min). These animals were randomly distributed into four groups (n = 6 per group) and injected intraperitoneally (300 μl) with: (i) PBS; (ii) heparin (50 μg/kg); (iii) XC-43 (0.5 mg/kg); or (iv) XC-43 (1 mg/kg). After 30 min posttreatment, a medium depth incision was performed at 3 mm from the tip of the animals' tail; the tail was submerged in a test tube containing saline solution (4 ml) and maintained for 30 min. Then, samples from saline solution were appropriately diluted and the absorbance at 540 nm was determined spectrophotometrically.

[6] = target: T1, α-thrombin; experiment: Isothermal titration calorimetry; parameters: Kinetic assays were performed using human α-thrombin (Enzyme Research Laboratories); purchased Enzyme Research Laboratories; settings: using a maximum c value of 500; single binding site; read-out: KD, ITC bound
Experimental: Isothermal titration calorimetric experiments were performed with a Microcal VP-ITC instrument at 30 °C. Human α-thrombin and XC-43 were dissolved in PBS, pH 7.4 at concentrations of 1 μM and 10 μM, respectively. XC-43 was added as 10-μl injections to the protein sample contained in the calorimeter cell. Calculated injection enthalpies were fit to a single-site binding model in the Microcal data evaluation software.
Figure S3: Analysis of XC-43 binding with thrombin using isothermal titration calorimetry. XC-43 (10 µM) was added to a solution of thrombin (1 µM) in a series of 10 µl injections. Heats were record ed on a VP -IT C MicroCalorimeter and the data fitted using a singl e binding site model. The high affinity makes the magnitude […]
association constant (K) must be ≥ 5 × 10 8 M −1 ( KD ≤ 2 nM ) with a single peptide binding site per thrombin […]
as §1

[7] = target: T1, α-thrombin; experiment: Kinetic assay of thrombin-catalyzed hydrolysis of S-2238 (Morrison equation); assay type: biochemical; parameters: Kinetic assays were performed using human α-thrombin (Enzyme Research Laboratories); purchased Enzyme Research Laboratories; settings: summary statement in the abstract; fast, tight-binding inhibitor; read-out: dissociation constant for thrombin (abstract)
Experimental: All reactions were performed at 30 °C. Kinetic assays were performed using human α-thrombin (Enzyme Research Laboratories) and chromogenic substrate S-2238 (Diapharma) using a Thermomax micro plate reader (Molecular Devices). Reactions were performed in 100 μl of TBS buffer (10 mM Tris, 0.15 M NaCl, pH 7.4) containing 0.01% Tween-20. XC-43 (0–3.2 nM) or 0 to 15 pairs of X.cheopis salivary glands were incubated with human α-thrombin (0.2 nM) at 30 °C for 5 min followed by addition of S-2238 (50, 100, 200, 400, and 600 μM). Reactions were followed for 30 min. The inhibitory constants were determined by fitting the nonlinear regression model according to the Morrison’s equation ([43]) using the GraphPad Prism software (GraphPad Software, Inc).

[8] = test system: α-thrombin; experiment: thrombin (1 μM) in 25 mM Tris-HCl pH 8.0 containing 150 mM NaCl; settings: human, 37 °C, up to 2 h

not cleaved [1]: no evidence of even partial cleavage
Compound: KPVEAEVAQPKLYQRGEGGNGMEPIPEDVLNEALNA

Compound: heparin
increase of ex vivo aPTT in relation to PBS-treated animals [2]: twofold

Compound: CC[C@H](C)[C@H](NC(=O)[C@@H]1CCCN1C(=O)[C@H](CCC(=O)O)NC(=O)[C@H](CCSC)NC(=O)CNC(=O)[C@H](CC(N)=O)NC(=O)CNC(=O)CNC(=O)[C@H](CCC(=O)O)NC(=O)CNC(=O)[C@H](CCCNC(=N)N)NC(=O)[C@H](CCC(N)=O)NC(=O)[C@H](Cc1ccc(O)cc1)NC(=O)[C@H](CC(C)C)NC(=O)[C@H](CCCCN)NC(=O)[C@@H]1CCCN1C(=O)[C@H](CCC(N)=O)NC(=O)[C@H](C)NC(=O)[C@@H](NC(=O)[C@H](CCC(=O)O)NC(=O)[C@H](C)NC(=O)[C@H](CCC(=O)O)NC(=O)[C@@H](NC(=O)[C@H](CCC(=O)O)NC(=O)[C@H](CS)NC(=O)[C@H](CCC(=O)O)NC(=O)[C@H](CC(=O)O)NC(=O)[C@H](CC(C)C)NC(=O)[C@H](CC(N)=O)NC(=O)[C@H](CO)NC(=O)[C@H](CCC(N)=O)NC(=O)[C@H](C)NC(=O)[C@@H](NC(=O)[C@H](CCC(=O)O)NC(=O)[C@H](C)NC(=O)[C@H](CCC(=O)O)NC(=O)[C@@H](NC(=O)[C@@H]1CCCN1C(=O)[C@@H](N)CCCCN)C(C)C)C(C)C)C(C)C)C(C)C)C(=O)N1CCC[C@H]1C(=O)N[C@@H](CCC(=O)O)C(=O)N[C@@H](CC(=O)O)C(=O)N[C@H](C(=O)N[C@@H](CC(C)C)C(=O)N[C@@H](CC(N)=O)C(=O)N[C@@H](CCC(=O)O)C(=O)N[C@@H](C)C(=O)N[C@@H](CC(C)C)C(=O)N[C@@H](CC(N)=O)C(=O)N[C@@H](C)C(=O)O)C(C)C [XC-42]
dissociation constants on immobilized thrombin, SPR (in words) [3]: elevated dissociation constants | cleavage by thrombin in solution (in words) [4]: majority of the peptide was uncleaved; also recorded: cleaved to a relatively small degree

Compound: CC[C@H](C)[C@H](NC(=O)[C@@H]1CCCN1C(=O)[C@H](CCC(=O)O)NC(=O)[C@H](CCSC)NC(=O)CNC(=O)[C@H](CC(N)=O)NC(=O)CNC(=O)CNC(=O)[C@H](CCC(=O)O)NC(=O)CNC(=O)[C@H](CCCNC(=N)N)NC(=O)[C@H](CCC(N)=O)NC(=O)[C@H](Cc1ccc(O)cc1)NC(=O)[C@H](CC(C)C)NC(=O)[C@H](CCCCN)NC(=O)[C@@H]1CCCN1C(=O)[C@H](CCC(N)=O)NC(=O)[C@H](C)NC(=O)[C@@H](NC(=O)[C@H](CCC(=O)O)NC(=O)[C@H](C)NC(=O)[C@H](CCC(=O)O)NC(=O)[C@@H](NC(=O)[C@@H]1CCCN1C(=O)[C@@H](N)CCCCN)C(C)C)C(C)C)C(=O)N1CCC[C@H]1C(=O)N[C@@H](CCC(=O)O)C(=O)N[C@@H](CC(=O)O)C(=O)N[C@H](C(=O)N[C@@H](CC(C)C)C(=O)N[C@@H](CC(N)=O)C(=O)N[C@@H](CCC(=O)O)C(=O)N[C@@H](C)C(=O)N[C@@H](CC(C)C)C(=O)N[C@@H](CC(N)=O)C(=O)N[C@@H](C)C(=O)O)C(C)C [XC-43]
dissociation constants on immobilized thrombin, SPR (in words) [3]: elevated dissociation constants | increased tail bleeding vs PBS-injected animals ([5]; 0.5 mg/kg intraperitoneal): 3.2 fold | increased tail bleeding vs PBS-injected animals ([5]; 1 mg/kg intraperitoneal): 7.6 fold | increased tail bleeding vs heparin-treated animals ([5]; 1 mg/kg intraperitoneal, heparin 50 μg/kg): 2.3 fold | Kd [6]: ≤ 2 nM | Kd [7]: < 0.01 nM | cleavage by thrombin in solution (in words) [4]: majority of the peptide was uncleaved; also recorded: largely intact; also recorded: cleaved to a relatively small degree | cleavage fragment ion intensity relative to that of the uncleaved peptide [4]: less than 15%

fragment found [8]: LYQRGEGGNGMEPIPEDVLNEALNA
Compound: KPVEAEVAQSNLDECEVEAEVAQPKLYQRGEGGNGMEPIPEDVLNEALNA
